Experimental data taken from PubChem BioAssay AID486 (Columbia University Molecular Screening Center, 2006).
Activity calls are given as the source filed them.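 How the source made its calls: active means ranking score of 15 or more out of 100, based on fitted potency or summed per-dose inhibition deviations; inactive means the rest.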

Test system: exon1htt(103Q)-mCFP cells, aggregate imaging, high-content
Test: concentration-dependent loss of polyQ htt inclusions – imaging, exon1htt(103Q)-mCFP cells, high-content imaging, dose response (AID 486)

Row | SMILES | IC50
1 | CCOc1ccc(NS(=O)(=O)c2ccc(OCC(=O)N3CCCC3)cc2)cc1 | > 8 µM (inactive)
2 | CN(C)C(=O)N1CCC(C(=O)NC2CCCCCCC2)CC1 | > 8 µM (inactive)
3 | COCCCNC(=O)C(Cc1ccccc1)NS(=O)(=O)c1ccc2c(c1)c(=O)n(C)c(=O)n2C (stereo not given) | > 8 µM (inactive)
4 | O=C(c1ccc(=O)[nH]c1)N(Cc1ccco1)C1(C(=O)NC2CCCC2)CCCCC1 | > 8 µM (inactive)
5 | Cc1nc(NC2=NCN(CC3CCCO3)CN2)nc2ccccc12 (stereo not given) | > 8 µM (inactive)
6 | Cc1cc(NC(=O)c2ccc(Cl)cc2)no1 | > 8 µM (inactive)
7 | COc1ccc(CCNC(=O)CSc2nnc(CNc3ccc(Cl)cc3)o2)cc1OC | > 8 µM (inactive)
8 | CS(=O)(=O)N(CC(=O)NCCSCc1cccc(Cl)c1)c1ccc2c(c1)OCO2 | > 8 µM (inactive)
9 | Cc1nc(C)n(C(C)CC(=O)O)n1 (stereo not given) | > 8 µM (inactive)
10 | O=C(CSc1nnc(CNC(=O)c2c(F)cccc2Cl)o1)c1ccccc1 | > 8 µM (inactive)
11 | O=C1Nc2ccccc2OC1CC(=O)N1CCCC1 (stereo not given) | > 8 µM (inactive)
12 | CCn1cc(C(=O)NCCC2=CCCCC2)c(=O)c2cc(S(=O)(=O)N(C)C)ccc21 | > 8 µM (inactive)
13 | CC(C)(C)NC(=O)CN(Cc1cccs1)C(=O)c1csnn1 | > 8 µM (inactive)
14 | CN(C)[C@@H]1C(=O)C(C(N)=O)=C(O)[C@@]2(O)C(=O)C3=C(O)c4c(O)ccc(Cl)c4[C@@](C)(O)C3C[C@@H]12 (stereo not given in full) | < 0.01 µM
15 | CSc1ccccc1NC(=O)c1c(Br)cnn1C | > 8 µM (inactive)
16 | Cn1c(=O)n(C)c2cc(NC(=O)C(F)(F)F)ccc21 | > 8 µM (inactive)
17 | COC(=O)c1c(N)nc(C)n1-c1ccc(OC)cc1 | > 8 µM (inactive)
18 | O=C(Nc1ncnc2sc3c(c12)CCCCC3)c1ccco1 | > 8 µM (inactive)
19 | CC(OC1=CC(=O)CCC1)C(=O)c1ccccc1 (stereo not given) | > 8 µM (inactive)
20 | Cc1cc(N2CCN(C3CCCC3)CC2)n2c(nc3ccccc32)c1C#N | > 8 µM (inactive)
21 | O=C1NC(=O)C(CC(=O)N(Cc2ccco2)C2(C(=O)NC3CCCC3)CCCCC2)N1 (stereo not given) | > 8 µM (inactive)
22 | Cc1nnc(SC(=O)N2c3ccccc3Sc3ccccc32)s1 | > 8 µM (inactive)
23 | O=c1oc2c3c4c(cc2cc1-c1nc2ccccc2[nH]1)CCCN4CCC3 | > 8 µM (inactive)

Row | SMILES | IC50
24 | Cn1cccc1Cc1nnc(SCC(=O)NCC2CCCO2)n1-c1ccc(F)cc1 (stereo not given) | > 8 µM (inactive)
25 | Cn1c(-c2ccc(F)cc2)cnc1SCC(=O)Nc1ccccc1N1CCOCC1 | > 8 µM (inactive)
26 | COc1ccc(OC)c(C(=O)CSc2nnc(-c3ccc(OC)c(OC)c3)o2)c1 | > 8 µM (inactive)
27 | COc1ccc(CCNC(=O)c2ccc(N3CCCC3=O)cc2)cc1OC | > 8 µM (inactive)
28 | CCOC(=O)C1CCN(c2nc3ccccc3nc2C(C#N)C(=O)OC(C)C)CC1 (stereo not given) | > 8 µM (inactive)
29 | Nc1nonc1NC(=O)CSc1nc2ccccc2s1 | > 8 µM (inactive)
30 | Cc1c(C(=O)NCc2cccnc2)oc2ccc(S(=O)(=O)N3CCCCC3)cc12 | > 8 µM (inactive)
31 | COc1ccc(S(=O)(=O)Cc2ccc(C(=O)NCCc3ccc(S(N)(=O)=O)cc3)o2)cc1 | > 8 µM (inactive)
32 | CC(C)(C)OC(=O)N1CC=C2C(C#N)=C(N)C(C#N)(C#N)[C@H](c3cccnc3)[C@H]2C1 | > 8 µM (inactive)
33 | Cc1ccccc1NC1=NCCCS1 | > 8 µM (inactive)
34 | C=C(C)CSc1nnc(-c2cccc(S(=O)(=O)N(C)C)c2)n1-c1cc(OC)ccc1OC | > 8 µM (inactive)
35 | CC1(C)CC(=O)C(C=NCCO)=C(O)C1 | > 8 µM (inactive)
36 | O=C(NCc1ccco1)c1ccccc1Nc1ccc(F)cc1 | > 8 µM (inactive)
37 | CCOC(=O)C1=C(C)NC(SC(C)=O)=NC1c1ccc(OC(C)=O)c(OC)c1 (stereo not given) | > 8 µM (inactive)
38 | CCN(CC)c1ccc2cc(-c3nc4ccccc4[nH]3)c(=O)oc2c1 | > 8 µM (inactive)
39 | O=C(CSc1nnc(-c2ccco2)n1-c1ccccc1)N1CCN(C(=O)c2ccco2)CC1 | > 8 µM (inactive)
40 | O=C(Nc1nccs1)c1ccc(Cl)c(S(=O)(=O)N2CCCCC2)c1 | > 8 µM (inactive)
41 | Cc1ccc(O)c(C(=O)c2cc(C#N)c(=O)n(CC3CCCO3)c2)c1 (stereo not given) | > 8 µM (inactive)
42 | COC(=O)c1oc2ccc(Br)cc2c1NC(C)=O | > 8 µM (inactive)
43 | Cc1cc(C)c(OCC(=O)Nc2cccc(O)c2)cc1C | > 8 µM (inactive)
44 | O=C(NC1CCCc2ccccc21)c1ccc(CNc2c(N3CCOCC3)c(=O)c2=O)cc1 (stereo not given) | > 8 µM (inactive)
45 | CC1(C)Cc2ccccc2C(N)=C1C#N | > 8 µM (inactive)
46 | COc1ccc(-c2nnc(SCC#N)o2)cc1 | > 8 µM (inactive)

Row | SMILES | IC50
47 | CC(C)(NC(=O)N1CCCC1)c1cccc(C(C)(C)NC(=O)N2CCCC2)c1 | > 8 µM (inactive)
48 | Cc1ncoc1C(=O)Nc1cccc(Cl)c1C | > 8 µM (inactive)
49 | Cc1ccccc1-n1c(=O)cc(NCc2ccc3c(c2)OCO3)[nH]c1=O | > 8 µM (inactive)
50 | CCOc1cc(C(=O)Nc2ncccn2)cc(OCC)c1OCC | > 8 µM (inactive)
51 | O=C(C1COc2ccccc2O1)N1CCCC1 (stereo not given) | > 8 µM (inactive)
52 | CC(C)CCNC(=O)C(C)N(Cc1ccc(F)cc1)C(=O)c1ccc(CN2CCCCC2)o1 (stereo not given) | > 8 µM (inactive)
53 | O=C(Nc1cnn(Cc2ccc(Cl)cc2Cl)c1)c1noc2c1CCCC2 | > 8 µM (inactive)
54 | Cn1c(=O)c2c(nc(NCc3ccc4c(c3)OCO4)n2Cc2ccccc2F)n(C)c1=O | > 8 µM (inactive)
55 | CCOC(=O)c1sc(NC(=O)c2c(C)nn(Cc3ccccc3)c2C)cc1C | > 8 µM (inactive)
56 | CN(C)c1ccc(O)c2c1CC1CC3[C@@H](N(C)C)C(=O)C(C(N)=O)=C(O)[C@]3(O)C(=O)C1=C2O (stereo not given in full) | < 0.1 µM
57 | CCCCc1nccn1CCn1ccnc1CCCC | > 8 µM (inactive)
58 | CCn1c(C(=O)N2CCCC(C(=O)NCCCc3ccccc3)C2)cc2sccc21 (stereo not given) | > 4 µM (inactive)
59 | Cc1cc(C)c(C)c(S(=O)(=O)Nc2ccc(O)cc2)c1C | > 8 µM (inactive)
60 | Cc1ccccc1OCC(O)CN (stereo not given) | > 8 µM (inactive)
61 | Nc1cc(-c2ccccc2)ccc1O | > 8 µM (inactive)
62 | OCCNC1=NCCN1 | > 8 µM (inactive)
63 | CCOC(=O)N1CCN(C(=O)c2ccc3c(=O)n(Cc4ccc(OC)cc4)c(=S)[nH]c3c2)CC1 | > 8 µM (inactive)
64 | C#CC1(O)CC(C)N(C)C(C)C1 (stereo not given) | > 8 µM (inactive)
65 | Cc1ccc(Nc2nc(N)nc(CN3CCN(Cc4ccc5c(c4)OCO5)CC3)n2)cc1 | > 8 µM (inactive)
66 | COc1ccc(N2CCC(CNS(=O)(=O)c3cccc(C(F)(F)F)c3)C2)cc1 (stereo not given) | > 8 µM (inactive)
67 | COc1cccc(-c2nnc3sc(C4CCCCC4)nn23)c1 | > 4 µM (inactive)
68 | CCOC(=O)c1sc2ncn(/N=C/N(C)C)c(=O)c2c1C | > 8 µM (inactive)
69 | COc1ccc(CCNC(=O)C2=COCCO2)cc1 | > 8 µM (inactive)

Row | SMILES | IC50
70 | COc1ccc(CNc2nc3nc(C)cc(C)n3n2)cc1OC | > 8 µM (inactive)
71 | Cn1c(=O)oc2cc(S(=O)(=O)NC3CCN(Cc4ccccc4)CC3)ccc21 | > 8 µM (inactive)
72 | O=C(O)CCn1[nH]c(=O)ccc1=O | > 8 µM (inactive)
73 | Cc1ccnc(NC(=O)C2CCCN(S(=O)(=O)c3cnc[nH]3)C2)c1 (stereo not given) | > 8 µM (inactive)
74 | Cc1ccc(/C=c2\sc3nc(-c4ccccc4Br)nn3c2=O)o1 | > 8 µM (inactive)
75 | COc1ccc(Cc2nnc3n2N=C(c2cc4ccccc4o2)CS3)cc1OC | > 8 µM (inactive)
76 | COc1ccccc1-n1c(=O)c2c3c(sc2n2c(SC(C)C)nnc12)CCC3 | > 8 µM (inactive)
77 | CN(C)[C@@H]1C(=O)C(C(N)=O)=C(O)[C@@]2(O)C(=O)C3=C(O)c4c(O)cccc4[C@@](C)(O)[C@H]3[C@H](O)[C@@H]12 | < 0.1 µM
78 | CN(C)[C@@H]1C(=O)C(C(N)=O)=C(O)[C@@]2(O)C(=O)C3=C(O)c4c(O)cccc4[C@@](C)(O)[C@H]3C[C@@H]12 | 0.08 µM
79 | COc1cccc(/C=N/n2c(C)nc3ccccc32)c1OC | > 8 µM (inactive)
80 | CCOC(=O)c1cc2c(=O)n3ccccc3nc2n(CCCOC)c1=NC(=O)C(C)(C)C | > 8 µM (inactive)
81 | CN(C)[C@@H]1C(=O)C(C(N)=O)=C(O)[C@@]2(O)C(=O)C3=C(O)c4c(O)ccc(Cl)c4[C@@H](O)[C@H]3C[C@@H]12 | < 0.01 µM
82 | CCn1ncc(C2=NOC(C(=O)NCc3ccccc3)C2)c1C (stereo not given) | > 8 µM (inactive)
83 | COc1ccc(NC(=O)CCc2nc(-c3ccccc3F)no2)cc1 | > 8 µM (inactive)
84 | CS(=O)(=O)N1CCN(c2ccccc2NC(=O)c2ccc(-c3ccc(Cl)cc3Cl)o2)CC1 | > 8 µM (inactive)
85 | COc1ccc(-c2nc(C#N)c(N3CCOCC3)o2)cc1OC | > 8 µM (inactive)
86 | CCOc1cc(C(=O)N2CCN(c3ccccc3)CC2)cc(OCC)c1OCC | > 8 µM (inactive)
87 | CCCCNC(=O)CSc1nc2ccc(N3CCOCC3)cc2c(=O)n1CCc1ccccc1 | > 8 µM (inactive)
88 | O=C(Nc1ccccc1)N(O)c1ccc(Cl)cc1 | > 8 µM (inactive)
89 | COc1cccc(C2C(C(=O)c3ccc(C)o3)=C(O)C(=O)N2CCCN(C)C)c1 (stereo not given) | > 8 µM (inactive)
90 | O=C(CCN1CCN(c2ccc(F)cc2)CC1)Nc1ccccc1F | > 8 µM (inactive)
